Data published in the Kinase Knowledgebase extract (Sharma et al. 2016).
≈ marks a conversion by molar mass, not a printed value.

Molecular target: EGFR (UniProt P00533)
Sequence (P00533 whole entry, looked up): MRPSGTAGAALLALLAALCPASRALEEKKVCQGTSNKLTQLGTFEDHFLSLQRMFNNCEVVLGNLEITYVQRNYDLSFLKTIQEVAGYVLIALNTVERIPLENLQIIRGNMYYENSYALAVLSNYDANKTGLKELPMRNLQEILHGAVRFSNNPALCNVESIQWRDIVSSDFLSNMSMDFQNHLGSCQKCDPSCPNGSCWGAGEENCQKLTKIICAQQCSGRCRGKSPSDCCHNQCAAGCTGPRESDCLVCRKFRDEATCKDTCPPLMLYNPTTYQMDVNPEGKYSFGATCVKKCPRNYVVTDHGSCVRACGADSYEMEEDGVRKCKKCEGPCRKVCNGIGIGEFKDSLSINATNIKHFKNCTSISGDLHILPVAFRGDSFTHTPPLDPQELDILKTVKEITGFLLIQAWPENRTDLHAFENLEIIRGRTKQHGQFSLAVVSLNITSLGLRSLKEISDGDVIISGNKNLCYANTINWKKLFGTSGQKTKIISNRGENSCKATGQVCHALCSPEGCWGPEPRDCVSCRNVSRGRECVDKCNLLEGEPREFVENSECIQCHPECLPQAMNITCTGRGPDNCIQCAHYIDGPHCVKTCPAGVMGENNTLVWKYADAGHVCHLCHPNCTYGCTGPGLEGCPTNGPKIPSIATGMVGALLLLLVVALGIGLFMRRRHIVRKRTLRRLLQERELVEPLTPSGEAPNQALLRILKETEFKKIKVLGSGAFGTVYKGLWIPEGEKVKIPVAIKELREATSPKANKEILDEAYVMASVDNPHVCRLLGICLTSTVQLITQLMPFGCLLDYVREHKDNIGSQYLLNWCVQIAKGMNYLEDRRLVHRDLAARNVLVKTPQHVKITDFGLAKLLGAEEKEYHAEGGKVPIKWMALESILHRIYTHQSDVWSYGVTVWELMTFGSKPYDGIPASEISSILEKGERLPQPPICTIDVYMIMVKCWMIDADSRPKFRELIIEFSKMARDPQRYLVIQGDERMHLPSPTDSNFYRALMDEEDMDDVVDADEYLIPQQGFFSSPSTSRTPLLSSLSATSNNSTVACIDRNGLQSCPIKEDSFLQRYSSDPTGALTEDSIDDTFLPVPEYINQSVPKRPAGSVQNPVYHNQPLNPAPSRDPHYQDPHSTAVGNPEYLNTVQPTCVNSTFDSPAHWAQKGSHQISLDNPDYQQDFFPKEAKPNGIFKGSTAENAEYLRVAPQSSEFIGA

| SMILES | IC50 [µg/mL] |
| --- | --- |
| COc1cc(Nc2ncnc(-n3c(NCc4ccc(O)cc4)nc4ccccc43)n2)cc(OC)c1OC | > 4.5 |
| COc1ccc2c(c1)nc(NCc1ccccc1)n2-c1ncnc(Nc2cc(OC)c(OC)c(OC)c2)n1.COc1ccc2nc(NCc3ccccc3)n(-c3ncnc(Nc4cc(OC)c(OC)c(OC)c4)n3)c2c1 | 0.4 to 2.4 |
| COc1cc(Nc2ncnc(-n3ccc4ccc(Cl)cc43)n2)cc(OC)c1OC | 3.5 to 4.5 (≈ 8.5 to 10.9 µM) |
| O=c1[nH]c2ccccc2n1-c1ncnc(Nc2ccc(Cl)cc2Cl)n1 | > 4.5 |
| COc1cccc(Nc2ncnc(Nc3ccc(OCc4ccccc4)cc3)n2)c1 | 0.4 to 2.4 (≈ 1 to 6.01 µM) |
| COc1cc(Nc2ncnc(-n3c(N)nc4ccccc43)n2)cc(OCCN2CCOCC2)c1OC | > 4.5 |
| Cc1ccc2c(c1)CCCN2c1ncnc(NCc2cccnc2)n1 | > 4.5 |
| COc1cc(Nc2ncnc(Nc3cc(OC)c(OC)c(OC)c3)n2)cc(OC)n1 | 2.4 to 3.5 (≈ 5.79 to 8.45 µM) |
| COc1cc(Nc2ncnc(-c3cccnc3N)n2)cc(OC)c1OC | > 4.5 |
| COc1cc(Nc2ncnc(-c3cccnc3Nc3cccc(OCc4ccccc4)c3)n2)cc(OC)c1OC | 3.5 to 4.5 (≈ 6.52 to 8.39 µM) |
| COc1cc(Nc2ncnc(N(C)c3ccc4c(cnn4Cc4ccccc4)c3)n2)cc(OC)c1OC | < 0.4 |
| FC(F)C(F)(F)Oc1cccc(Nc2ncnc(-c3ccnc(Cl)c3)n2)c1 | > 4.5 |
| COc1cc(Nc2ncnc(-c3cccnc3Nc3ccc(C(F)(F)F)cc3)n2)cc(OC)c1OC | > 4.5 |
| C=CCNc1nc2ccccc2n1-c1ncnc(Nc2cc(OC)c(OC)c(OC)c2)n1 | > 4.5 |
| COC(=O)c1ccc(-c2cc(Nc3ncnc(NCCc4c[nH]c5ccccc45)n3)[nH]n2)cc1 | 0.4 to 2.4 (≈ 0.88 to 5.28 µM) |
| CN1CCN(Cc2cccc(Nc3ncnc(Nc4ccc5c(cnn5Cc5ccccc5)c4)n3)c2)CC1 | > 4.5 |
| COc1cc(Nc2ncnc(Nc3cc(-c4cccc(Cl)c4)n[nH]3)n2)cc(OC)c1OC | 0.4 to 2.4 (≈ 0.881 to 5.29 µM) |
| COc1cc(Nc2ncnc(Nc3cc(-c4cccc(C(F)(F)F)c4)n[nH]3)n2)cc(OC)c1OC | 2.4 to 3.5 (≈ 4.92 to 7.18 µM) |
| CC(=O)Nc1ccc(Nc2ncnc(N3CCCc4cc(C)ccc43)n2)cc1 | < 0.4 |
| C=CCN(c1cccc(Cl)c1)c1ncnc(Nc2cc(OC)cc(OC)c2)n1 | < 0.4 |
| Nc1ncnc(Nc2ccc(C3CCCCC3)cc2)n1 | > 4.5 |
| COc1cccc(Nc2ncnc(Nc3cc(-c4ccccc4)n[nH]3)n2)c1 | 0.4 to 2.4 (≈ 1.11 to 6.68 µM) |
| Nc1nc2ccccc2n1-c1ncnc(Nc2cccc(-c3cnco3)c2)n1 | 0.4 to 2.4 (≈ 1.08 to 6.48 µM) |
| Cc1cccc(Nc2ncnc(Nc3ccc(O)cc3)n2)c1 | < 0.4 |
| COc1cc(Nc2ncnc(-n3c(Nc4cccc(C(=O)O)c4)nc4ccccc43)n2)cc(OC)c1OC | 3.5 to 4.5 (≈ 6.82 to 8.76 µM) |
| COc1cc(Nc2ncnc(NC3CC3c3ccccc3)n2)cc(OC)c1OCCN1CCOCC1 (configuration not stated) | < 0.4 |

| SMILES | IC50 [µg/mL] |
| --- | --- |
| Nc1ncnc(Nc2cccc(C(F)(F)F)c2)n1 | > 4.5 |
| O=c1[nH]c2ccccc2n1-c1ncnc(Nc2ccncc2)n1 | > 4.5 |
| COc1cc(Nc2ncnc(-n3c(N)nc4cc([N+](=O)[O-])ccc43)n2)cc(OC)c1OC.COc1cc(Nc2ncnc(-n3c(N)nc4ccc([N+](=O)[O-])cc43)n2)cc(OC)c1OC | > 4.5 |
| COc1cc(Nc2ncnc(N3CCCc4ccccc43)n2)cc(OC)c1OC | < 0.4 |
| COc1cc(Nc2ncnc(-n3nc(-c4ccccc4)cc3N)n2)cc(OC)c1OC | > 4.5 |
| COc1cc(Nc2ncnc(N[C@@H](CO)c3ccccc3)n2)cc(OC)c1OC | > 4.5 |
| O=c1[nH]c2ccccc2n1-c1ncnc(Nc2ccccc2)n1 | > 4.5 |
| COc1cc(Nc2ncnc(-n3c(N[C@H](C)c4ccccc4)nc4ccccc43)n2)cc(OC)c1OC | > 4.5 |
| COc1cc(Nc2ncnc(-n3c(Nc4ccc5cn[nH]c5c4)nc4ccccc43)n2)cc(OC)c1OC | > 4.5 |
| COc1cccc(Nc2ncnc(-n3c(N)nc4ccccc43)n2)c1 | 2.4 to 3.5 (≈ 7.2 to 10.5 µM) |
| Clc1cccc(Nc2ncnc(-c3cccs3)n2)c1 | > 4.5 |
| COc1ccc(Nc2ncnc(Nc3cc(OC)c(OC)c(OC)c3)n2)cc1OCCN1CCOCC1 | 3.5 to 4.5 (≈ 6.83 to 8.78 µM) |
| COc1ccc(Nc2ncnc(NCC(O)c3ccccc3)n2)cc1OC (configuration not stated) | 3.5 to 4.5 (≈ 9.53 to 12.2 µM) |
| COc1cc(Nc2ncnc(N(c3ccc(Cl)cc3)c3nc4ccccc4[nH]3)n2)cc(OC)c1OC | < 0.4 |
| COc1cc(Nc2ncnc(-n3c(NCc4ccc(C)cc4)nc4ccccc43)n2)cc(OC)c1OC | > 4.5 |
| COc1cc(Nc2ncnc(N3CCCc4cc(C)ccc43)n2)cc(OC)c1OC | < 0.4 |
| CN(c1ccc2c(cnn2Cc2ccccc2)c1)c1ncnc(Nc2cccc(Br)c2)n1 | < 0.4 |
| COc1cc(Nc2ncnc(-c3cccnc3NCc3ccc(F)cc3)n2)cc(OC)c1OC | > 4.5 |
| COc1cc(Nc2ncnc(-n3cc(C)c4ccccc43)n2)cc(OC)c1OC | > 4.5 |
| COc1cc(Nc2ncnc(Nc3cccc(C(C)=O)c3)n2)cc(OC)c1OC | 0.4 to 2.4 (≈ 1.01 to 6.07 µM) |
| CCc1ccccc1Nc1ncnc(-n2cccc2)n1 | > 4.5 |
| COC(=O)c1ccc(-c2cc(Nc3ncnc(NCc4ccco4)n3)[nH]n2)cc1 | > 4.5 |
| COc1cc(Nc2ncnc(-n3c(NCc4ccc([N+](=O)[O-])cc4)nc4ccccc43)n2)cc(OC)c1OC | > 4.5 |
| COc1cc(Nc2ncnc(N(C)c3cccc(Cl)c3)n2)cc(OC)c1 | < 0.4 |
| COc1cc(Nc2ncnc(Nc3cc(-c4ccc(C(=O)NCCc5ccccc5)cc4)n[nH]3)n2)cc(OC)c1OC | > 4.5 |
| COc1cccc(Nc2nc3ccccc3n2-c2ncnc(Nc3cc(OC)c(OC)c(OC)c3)n2)c1 | > 4.5 |
